A value given as a limit tells only on which side of the number the result lay.

Format in all cases: biochemical
The target in assay [1] is T1, ENPP1 (Homo sapiens, UniProt P22413).
T1 sequence (P22413 1-925): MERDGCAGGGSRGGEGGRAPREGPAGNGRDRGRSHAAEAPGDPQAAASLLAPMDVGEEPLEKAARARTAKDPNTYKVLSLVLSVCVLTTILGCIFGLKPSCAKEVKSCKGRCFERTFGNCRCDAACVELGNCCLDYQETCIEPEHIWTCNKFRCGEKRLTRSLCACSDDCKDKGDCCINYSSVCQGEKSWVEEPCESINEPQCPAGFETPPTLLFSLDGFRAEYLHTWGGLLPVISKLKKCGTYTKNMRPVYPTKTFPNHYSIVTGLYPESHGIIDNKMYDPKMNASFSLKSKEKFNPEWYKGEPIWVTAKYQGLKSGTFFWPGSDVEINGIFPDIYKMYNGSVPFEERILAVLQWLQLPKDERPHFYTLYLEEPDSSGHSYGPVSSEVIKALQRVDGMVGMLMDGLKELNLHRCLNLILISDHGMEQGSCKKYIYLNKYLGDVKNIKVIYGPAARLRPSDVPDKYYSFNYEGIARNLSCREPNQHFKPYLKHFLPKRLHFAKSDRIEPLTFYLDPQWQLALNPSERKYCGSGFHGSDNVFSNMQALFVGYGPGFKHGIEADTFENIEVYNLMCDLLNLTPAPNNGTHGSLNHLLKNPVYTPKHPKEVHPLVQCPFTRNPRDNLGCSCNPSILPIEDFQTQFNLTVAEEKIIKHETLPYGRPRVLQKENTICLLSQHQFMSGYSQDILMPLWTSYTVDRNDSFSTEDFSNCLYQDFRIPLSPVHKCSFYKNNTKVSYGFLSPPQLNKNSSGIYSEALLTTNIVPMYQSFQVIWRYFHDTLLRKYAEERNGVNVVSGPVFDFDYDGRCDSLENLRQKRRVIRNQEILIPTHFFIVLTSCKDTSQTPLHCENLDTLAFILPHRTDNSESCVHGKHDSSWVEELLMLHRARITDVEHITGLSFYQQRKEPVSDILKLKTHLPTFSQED
The assay can be described thus: Substrate selectivity ratio, inhibition of cGAMP hydrolysis versus ATP hydrolysis. The settings on record: ratio Ki AMP-pNP / Ki cGAMP. The protocol:
The selectivity ratios for inhibition of cGAMP hydrolysis versus ATP hydrolysis were then calculated as follows: […]

Assay [2] concerns the target T1, ENPP1. Kind of assay: ENPP1 enzyme assay with AMP-pNP substrate (hydrolysis of ATP analog). To be noted: AMP-pNP substrate (ATP analog); Ki from IC50 by Cheng-Prusoff; read-out: ENPP1 Inhibition _AMP-pNP: Ki. In short, it runs like this: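 Human recombinant ENPP1 (60 ng/well) with 300 µM AMP-pNP in 50 mM Tris-HCl pH 8.5, 250 mM NaCl, 0.5 mM CaCl2, 1 µM ZnCl2, 0.1% DMSO, 20 min at 37 °C.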

The target of assay [3] is T1, ENPP1. Kind of assay: Indirect quantitation of 2',3'-cGAMP hydrolysis (AMP-Glo Assay kit). To be noted: cGAMP substrate; Ki from IC50 by Cheng-Prusoff; read-out: ENPP1 Inhibition -cGAMP: Ki.

In the case of `COc1cc2nccc(-c3ccc4c(c3)CN(S(N)(=O)=O)CC4)c2cc1OC` [Example 148, 7-(6,7-dimethoxyquinolin-4-yl)-3,4-dihydroisoquinoline-2(1H)-sulfonamide], the “Substrate Selectivity: Ki_AMP-pNP/Ki_cGAMP” value (“Substrate Selectivity” for short) at ENPP1 [1] stood at 10.1. Also, the inhibitory constant (Ki) on ENPP1 [2] and on ENPP1 [3] was below 100 nM throughout.

Regarding `COc1ccc2c(Oc3ccc4c(c3)CCCN4S(N)(=O)=O)ccnc2c1` [Example 319, 6-((7-methoxyquinolin-4-yl)oxy)-3,4-dihydroquinoline-1(2H)-sulfonamide], the “Substrate Selectivity” value on ENPP1 [1] is listed as above 35.9. In addition, the inhibitory constant (Ki) is above 1000 nM at ENPP1 [2] and below 100 nM at ENPP1 [3].

Take `COc1cc2ncnc(N3CCC(CNS(N)(=O)=O)CC3)c2cc1OC` [Example 339, N-((1-(6,7-dimethoxyquinazolin-4-yl)piperidin-4-yl)methyl)sulfamide]: the “Substrate Selectivity” value on ENPP1 [1] is recorded as 38.5. For the same compound, the inhibitory constant (Ki) on ENPP1 [2] is 100 to 1000 nM; at ENPP1 [3], below 100 nM.

Regarding `COc1cc2nccc(Nc3ccc(NS(=O)(=O)c4ccccc4)cc3)c2cc1OC` [Example 153, N-(4-((6,7-dimethoxyquinolin-4-yl)amino)phenyl)benzenesulfonamide], the “Substrate Selectivity” value on ENPP1 [1] is given as 62.9. The Ki at ENPP1 [2] is above 1000 nM; on ENPP1 [3] it was below 100 nM.

Turning to `NS(=O)(=O)c1ccc(CNc2ncnc3cc(F)ccc23)cc1` [Example 304, 4-(((7-fluoroquinazolin-4-yl)amino)methyl)benzenesulfonamide], the “Substrate Selectivity” value on ENPP1 [1] is listed as above 34.0. Also, the Ki was above 1000 nM on ENPP1 [2] and below 100 nM on ENPP1 [3].

`COc1ccc2c(Nc3ccc(NS(N)(=O)=O)cc3)ccnc2n1` [Example 231, N-(4-((7-methoxy-1,8-naphthyridin-4-yl)amino)phenyl)sulfamide]: the “Substrate Selectivity” value on ENPP1 [1] was determined as 30.9. In addition, the Ki at ENPP1 [2] and on ENPP1 [3] was below 100 nM each time.

As to `COc1ccc2c(-c3ccc(NS(N)(=O)=O)cc3)ccnc2c1` [Example 396, N-(4-(7-methoxyquinolin-4-yl)phenyl)sulfamide], the “Substrate Selectivity” value at ENPP1 [1] is given as above 20. Moreover, the figures for the inhibitory constant (Ki) at ENPP1 [2] and on ENPP1 [3] were above 1000 nM and 100 to 1000 nM, respectively.

Take `COc1cc2ncc(C#N)c(-c3ccc4c(c3)CN(S(N)(=O)=O)CC4)c2cc1F` [Example 316, 7-(3-cyano-6-fluoro-7-methoxyquinolin-4-yl)-3,4-dihydroisoquinoline-2(1H)-sulfonamide]: the “Substrate Selectivity” value at ENPP1 [1] is reported as above 533. Also, the Ki at ENPP1 [2] is above 1000 nM; on ENPP1 [3], below 100 nM.

With `COc1cc2nccc(N3CCC(CCNS(=O)(=O)N4CCOCC4)CC3)c2cc1OC` [Example 147, N-(2-(1-(6,7-dimethoxyquinolin-4-yl)piperidin-4-yl)ethyl)morpholine-4-sulfonamide], at ENPP1 [1], the “Substrate Selectivity” value is above 117. The inhibitory constant (Ki) on ENPP1 [2] was above 1000 nM; on ENPP1 [3], 100 to 1000 nM.

For `COc1cc2ncnc(NC(C)c3ccc(NS(N)(=O)=O)cc3)c2cc1OC` (stereo in doubt) [Example 253, (R)-N-(4-(1-((6,7-dimethoxyquinazolin-4-yl)amino)ethyl)phenyl)sulfamide], the “Substrate Selectivity” value at ENPP1 [1] was 79.4. The Ki was 100 to 1000 nM at ENPP1 [2] and below 100 nM on ENPP1 [3].

For the compound `COc1cc2ncnc(Nc3ccc(NS(N)(=O)=O)cc3)c2cc1OC` [Example 114, N-(4-((6,7-dimethoxyquinazolin-4-yl)amino)phenyl)sulfamide], the “Substrate Selectivity” value at ENPP1 [1] was above 42.7. Further, the inhibition constant (Ki) is above 1000 nM on ENPP1 [2] and below 100 nM on ENPP1 [3].

Take `COc1cc2ncnc(NC(C)c3ccc(NS(N)(=O)=O)cc3)c2cc1F` (stereo not drawn) [Example 236, N-(4-(1-((6-fluoro-7-methoxyquinazolin-4-yl)amino)ethyl)phenyl)sulfamide]: the “Substrate Selectivity” value at ENPP1 [1] came to 109. For the same compound, the inhibition constant (Ki) was 100 to 1000 nM on ENPP1 [2] and below 100 nM on ENPP1 [3].

Turning to `COc1cc2nccc(-n3ccc4cc(NS(N)(=O)=O)ccc43)c2cc1OC` [Example 313, N-(1-(6,7-dimethoxyquinolin-4-yl)-1H-indol-5-yl)sulfamide], the “Substrate Selectivity” value on ENPP1 [1] is listed as above 38.8. Besides, the results for the Ki at ENPP1 [2] and on ENPP1 [3] were above 1000 nM and below 100 nM, respectively.

As for `COc1ccc2nccc(N3CCC4(CC3)CCN(S(N)(=O)=O)C4)c2c1` [Example 364, 8-(6-methoxyquinolin-4-yl)-2,8-diazaspiro[4.5]decane-2-sulfonamide], the “Substrate Selectivity” value on ENPP1 [1] is recorded as 43. For the same compound, the figures for the Ki on ENPP1 [2] and on ENPP1 [3] were 100 to 1000 nM and below 100 nM, respectively.

Turning to `COc1cc2nccc(N3CCC(CCNS(N)(=O)=O)CC3)c2cc1F` [Example 220, N-(2-(1-(6-fluoro-7-methoxyquinolin-4-yl)piperidin-4-yl)ethyl)sulfamide], the “Substrate Selectivity” value at ENPP1 [1] is 35.9. The inhibition constant Ki was 100 to 1000 nM on ENPP1 [2] and below 100 nM on ENPP1 [3].

`COc1ccc2c(-c3ccc(CS(N)(=O)=O)cc3)ccnc2c1` [Example 406, (4-(7-methoxy quinolin-4-yl)phenyl)methane sulfonamide]: on ENPP1 [1], the “Substrate Selectivity” value is above 65. Besides, the inhibition constant (Ki) at ENPP1 [2] is above 1000 nM; on ENPP1 [3], 100 to 1000 nM.

Turning to `COc1cc2ncnc(Oc3ccc(NS(N)(=O)=O)cc3)c2cc1OC` [Example 273, N-(4-((6,7-dimethoxyquinazolin-4-yl)oxy)phenyl)sulfamide], the “Substrate Selectivity” value on ENPP1 [1] is above 12.4. Moreover, the Ki on ENPP1 [2] is above 1000 nM; at ENPP1 [3], 100 to 1000 nM.

On to `COc1ccc2c(Oc3ccc(NS(N)(=O)=O)cc3)c(C(F)(F)F)cnc2c1` [Example 407, N-(4-((7-methoxy-3-(trifluoromethyl)quinolin-4-yl)oxy)phenyl)sulfamide], for which the “Substrate Selectivity” value on ENPP1 [1] is above 14. Also, the Ki is above 1000 nM at ENPP1 [2] and 100 to 1000 nM at ENPP1 [3].

In the case of `COc1cc2ncn(-c3ccc(CCNS(N)(=O)=O)cc3)c2cc1OC` [Example 217, N-(4-(5,6-dimethoxy-1H-benzo[d]imidazol-1-yl)phenethyl)sulfamide], on ENPP1 [1], the “Substrate Selectivity” value is given as above 18.2. The values for the Ki at ENPP1 [2] and at ENPP1 [3] were above 1000 nM and 100 to 1000 nM, respectively.

`COc1cc2ncnc(N3CCC(CCS(N)(=O)=O)CC3)c2cc1OC` [Example 164, 2-(1-(6,7-dimethoxyquinazolin-4-yl)piperidin-4-yl)ethane-1-sulfonamide]: the “Substrate Selectivity” value at ENPP1 [1] was determined as 14.8. The Ki on ENPP1 [2] and on ENPP1 [3] was below 100 nM each time.

As to `COc1ccc2c(Sc3ccc(NS(N)(=O)=O)cc3)ccnc2c1` [Example 302, N-(4-((7-methoxyquinolin-4-yl)thio)phenyl)sulfamide], the “Substrate Selectivity” value at ENPP1 [1] is on record as above 13.0. The values for the Ki on ENPP1 [2] and at ENPP1 [3] were 100 to 1000 nM and below 100 nM, respectively.

Consider `COc1ccc2ncnc(N3CCC4(CC3)CCN(S(N)(=O)=O)C4)c2c1` [Example 70, 8-(6-methoxyquinazolin-4-yl)-2,8-diazaspiro [4.5] decane-2-sulfonamide], for which the “Substrate Selectivity” value at ENPP1 [1] was determined as 15.5. For the same compound, the Ki at ENPP1 [2] and at ENPP1 [3] was below 100 nM throughout.

In the case of `COc1cc2ncnc(-c3ccc(CNS(N)(=O)=O)c(F)c3)c2cc1OC` [Example 301, N-(4-(6,7-dimethoxyquinazolin-4-yl)-2-fluorobenzyl)sulfamide], the “Substrate Selectivity” value on ENPP1 [1] is given as 34.2. For the same compound, the Ki at ENPP1 [2] is 100 to 1000 nM; at ENPP1 [3] it was below 100 nM.

Take `COc1nc2ncnc(N3CCC(CCNS(N)(=O)=O)CC3)c2n1C` [Example 218, N-(2-(1-(8-methoxy-7-methyl-7H-purin-6-yl)piperidin-4-yl)ethyl)sulfamide]: the “Substrate Selectivity” value on ENPP1 [1] is recorded as above 42.9. Also, the inhibition constant (Ki) on ENPP1 [2] is above 1000 nM; on ENPP1 [3] it was 100 to 1000 nM.

`COc1ccc2c(Oc3ccc(S(N)(=O)=O)cc3)c(C)cnc2c1` [Example 359, 4-((7-methoxy-3-methylquinolin-4-yl)oxy)benzene sulfonamide]: the “Substrate Selectivity” value on ENPP1 [1] was 54. Also, the Ki is 100 to 1000 nM on ENPP1 [2] and below 100 nM at ENPP1 [3].

Source of the values: patent US20230183239A1, “ECTONUCLEOTIDE PYROPHOSPHATASE-PHOSPHODIESTERASE 1 (ENPP-1) INHIBITORS AND USES THEREOF” (AbbVie Inc., priority 2017, published 2023).
